The target in test [1] is T1, system Xc^− (Homo sapiens, UniProt Q9UPY5).
T1 sequence (Q9UPY5 1-501): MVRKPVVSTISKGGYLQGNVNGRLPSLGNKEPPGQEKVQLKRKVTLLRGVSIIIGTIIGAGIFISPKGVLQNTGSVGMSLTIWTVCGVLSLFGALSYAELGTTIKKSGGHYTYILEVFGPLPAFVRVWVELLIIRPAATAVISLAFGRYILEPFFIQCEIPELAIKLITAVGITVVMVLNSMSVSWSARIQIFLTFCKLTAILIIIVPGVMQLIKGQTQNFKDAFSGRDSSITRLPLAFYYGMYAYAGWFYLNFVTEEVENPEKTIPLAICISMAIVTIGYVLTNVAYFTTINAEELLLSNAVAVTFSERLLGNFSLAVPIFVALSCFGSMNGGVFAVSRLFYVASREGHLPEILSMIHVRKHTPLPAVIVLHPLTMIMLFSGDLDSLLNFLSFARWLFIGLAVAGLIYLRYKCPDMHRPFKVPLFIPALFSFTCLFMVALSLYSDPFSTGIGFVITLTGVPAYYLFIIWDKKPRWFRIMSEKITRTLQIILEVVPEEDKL
T1 sequence (P08195 1-529 partner): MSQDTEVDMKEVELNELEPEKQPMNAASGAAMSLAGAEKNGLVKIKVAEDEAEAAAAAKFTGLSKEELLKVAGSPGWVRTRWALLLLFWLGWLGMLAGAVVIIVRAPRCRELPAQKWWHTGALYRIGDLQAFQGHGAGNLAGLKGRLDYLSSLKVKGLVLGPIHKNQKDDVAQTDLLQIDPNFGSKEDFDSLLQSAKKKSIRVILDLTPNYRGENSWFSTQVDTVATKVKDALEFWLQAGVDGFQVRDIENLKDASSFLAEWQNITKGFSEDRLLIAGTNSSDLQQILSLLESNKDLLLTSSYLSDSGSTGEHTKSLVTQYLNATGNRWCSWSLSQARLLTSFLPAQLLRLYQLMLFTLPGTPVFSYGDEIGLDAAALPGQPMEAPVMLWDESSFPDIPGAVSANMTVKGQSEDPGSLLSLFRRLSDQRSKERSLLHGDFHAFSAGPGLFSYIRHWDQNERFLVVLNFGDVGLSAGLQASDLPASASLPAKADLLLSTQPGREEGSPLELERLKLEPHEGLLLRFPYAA
The experiment in a line: Cystine-induced glutamate release assay. Format: cell-based. The arrangement: endogenous in cells; host or cells: H4 cells. The conditions noted are these: H4 cells, sodium-free HEPES buffer, 50 μM L-Cystine, 2 hours, Amplex Red glutamate readout; read-out: pIC50 Cystine-induced glutamate release assay (converted). Summed up:
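H4 cells in sodium-free HEPES buffer (pH 7.4), 2 days after plating; glutamate release induced with 50 μM L-cystine plus compound (1% DMSO), 2 h at 37 °C. Supernatant glutamate measured by Amplex Red fluorescence; IC50/pIC50 derived between 1% DMSO and 50 μM erastin controls.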

Test [2] concerns the target T1, system Xc^−. The experiment in a line: [^14C]L-Cystine uptake assay. Format: cell-based. More on the design: endogenous in cells; host or cells: H4 cells. The conditions noted are these: H4 cells, sodium-free HEPES buffer, 0.5 μM L-[14C]Cystine and 4.5 μM L-Cystine, 1 hour at 37° C.; read-out: pIC50 [^14C] L-Cystine uptake assay (converted). In outline: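 H4 cells at 5×10^4 cells/well in sodium-free HEPES buffer were preincubated 15 min with compounds (1% DMSO). Uptake of 0.5 μM [14C]L-cystine plus 4.5 μM unlabelled L-cystine ran 1 hour at 37° C on scintillating plates. IC50 was set between 1% DMSO and 50 μM Erastin controls and expressed as pIC50.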

For the molecule `COc1cc2c(c(C)n1)-c1cccnc1C(C)C(=O)N2CC(=O)Nc1ccc(Cl)c(F)c1` (single isomer, unassigned) [#300, N-(4-chloro-3-fluoro-phenyl)-2-[5-methoxy-3,10-dimethyl-9-oxo-4,8,12-triazatricyclo[9.4.0.0^2,7]pentadeca-1(15),2(7),3,5,11,13-hexaen-8-yl]acetamide], the IC50 in test [1] and in test [2] was less than 0.0158 µM each time.

`Cc1cc2c(c(C(F)F)n1)-c1cccnc1C(C)C(=O)N2CC(=O)Nc1ccc(C(F)F)cc1` (single isomer, unassigned) [#301, 2-[3-(difluoromethyl)-5,10-dimethyl-9-oxo-4,8,12-triazatricyclo[9.4.0.0^2,7]pentadeca-1(11),2(7),3,5,12,14-hexaen-8-yl]-N-[4-(difluoromethyl)phenyl]acetamide]: the IC50 in test [1] and in test [2] was 0.0398 to 0.1 µM throughout.

Take `Cc1cc2c(c(C(F)F)n1)-c1cccnc1C(C)C(=O)N2CC(=O)Nc1ccc(Cl)c(F)c1` (single isomer, unassigned) [#302, N-(4-chloro-3-fluoro-phenyl)-2-[3-(difluoromethyl)-5,10-dimethyl-9-oxo-4,8,12-triazatricyclo[9.4.0.0^2,7]pentadeca-1(15),2,4,6,11,13-hexaen-8-yl]acetamide]: the IC50 in test [1] is 0.0398 to 0.1 µM; in test [2] it was 0.0158 to 0.0398 µM.

As for `Cc1cc2c(c(F)n1)-c1ncc(F)cc1C(C)C(=O)N2CC(=O)Nc1ccc(Cl)c(F)c1` (single isomer, unassigned) [#303, N-(4-chloro-3-fluoro-phenyl)-2-[5,15-difluoro-8,13-dimethyl-9-oxo-3,10,14-triazatricyclo[9.4.0.0^2,7]pentadeca-1(15),2,4,6,11,13-hexaen-10-yl]acetamide], the IC50 was less than 0.0158 µM in test [1] and 0.0158 to 0.0398 µM in test [2].

Regarding `Cc1cc2c(c(F)n1)-c1ncc(F)cc1C(C)C(=O)N2CC(=O)Nc1ccc(C(F)F)cc1` (single isomer, unassigned) [#304, 2-[5,15-difluoro-8,13-dimethyl-9-oxo-3,10,14-triazatricyclo[9.4.0.0^2,7]pentadeca-1(15),2,4,6,11,13-hexaen-10-yl]-N-[4-(difluoromethyl)phenyl]acetamide], the IC50 in test [1] and in test [2] was 0.0158 to 0.0398 µM in each case.

With `CC1C(=O)N(CC(=O)Nc2ccc(Cl)c(F)c2)c2cc(C#N)ccc2-c2cc(F)cnc21` (single isomer, unassigned) [#307, N-(4-chloro-3-fluoro-phenyl)-2-[9-cyano-2-fluoro-5-methyl-6-oxo-5H-pyrido[2,3-d][1]benzazepin-7-yl]acetamid], the IC50 in test [1] was less than 0.0158 µM; in test [2] it was 0.0158 to 0.0398 µM.

Regarding `CC1C(=O)N(CC(=O)Nc2ccc(C(F)F)cc2)c2cc(C#N)ccc2-c2cc(F)cnc21` (single isomer, unassigned) [#308, 2-[9-cyano-2-fluoro-5-methyl-6-oxo-5H-pyrido[2,3-d][1]benzazepin-7-yl]-N-[4-(difluoromethyl)phenyl]acetamide], the IC50 in test [1] is less than 0.0158 µM; in test [2] it was 0.0158 to 0.0398 µM.

On to `CC1C(=O)N(CC(=O)Nc2ccc(C(F)F)cc2)c2cc(C#N)cc(F)c2-c2cccnc21` (single isomer, unassigned) [#309, 2-[9-cyano-11-fluoro-5-methyl-6-oxo-5H-pyrido[2,3-d][1]benzazepin-7-yl]-N-[4-(difluoromethyl)phenyl]acetamide], for which the IC50 in test [1] and in test [2] was 0.0158 to 0.0398 µM throughout.

Turning to `CC1C(=O)N(CC(=O)Nc2ccc(Cl)c(F)c2)c2cc(C#N)cc(F)c2-c2cccnc21` (single isomer, unassigned) [#310, N-(4-chloro-3-fluoro-phenyl)-2-[9-cyano-11-fluoro-5-methyl-6-oxo-5H-pyrido[2,3-d][1]benzazepin-7-yl]acetamide], the IC50 in test [1] and in test [2] was less than 0.0158 µM in each case.

`CC1C(=O)N(CC(=O)Nc2ccc(C(F)F)cc2)c2cc(C#N)ccc2-c2cccnc21` (single isomer, unassigned) [#312, 2-[9-cyano-5-methyl-6-oxo-5H-pyrido[2,3-d][1]benzazepin-7-yl]-N-[4-(difluoromethyl)phenyl]acetamide]: the IC50 was less than 0.0158 µM in test [1] and 0.0398 to 0.1 µM in test [2].

For `CC1C(=O)N(CC(=O)Nc2ccc(C(F)F)cc2)c2cc(Cl)cc(F)c2-c2cncnc21` (single isomer, unassigned) [#313, 2-[9-chloro-11-fluoro-5-methyl-6-oxo-5H-pyrimido[4,5-d][1]benzazepin-7-yl]-N-[4-(difluoromethyl)phenyl]acetamide], the IC50 in test [1] was less than 0.0158 µM; in test [2], 0.0158 to 0.0398 µM.

Regarding `CC1C(=O)N(CC(=O)Nc2ccc(Cl)c(F)c2)c2cc(Cl)cc(F)c2-c2cncnc21` (single isomer, unassigned) [#314, 2-[9-chloro-11-fluoro-5-methyl-6-oxo-5H-pyrimido[4,5-d][1]benzazepin-7-yl]-N-(4-chloro-3-fluoro-phenyl)acetamide], the IC50 was 0.0158 to 0.0398 µM in test [1] and less than 0.0158 µM in test [2].

Consider `COc1cc(F)c2c(c1)N(CC(=O)Nc1ccc(C(F)F)cc1)C(=O)C(C)c1ncccc1-2` (single isomer, unassigned) [#315, N-[4-(difluoromethyl)phenyl]-2-[11-fluoro-9-methoxy-5-methyl-6-oxo-5H-pyrido[2,3-d][1]benzazepin-7-yl]acetamide], for which the IC50 in test [1] and in test [2] was less than 0.0158 µM each time.

As for `COc1cc(F)c2c(c1)N(CC(=O)Nc1ccc(Cl)c(F)c1)C(=O)C(C)c1ncccc1-2` (single isomer, unassigned) [#316, N-(4-chloro-3-fluoro-phenyl)-2-[11-fluoro-9-methoxy-5-methyl-6-oxo-5H-pyrido[2,3-d][1]benzazepin-7-yl]acetamide], the IC50 in test [1] and in test [2] was 0.0158 to 0.0398 µM throughout.

As to `O=C(CN1C(=O)C(O)c2ncc(F)cc2-c2c(F)cc(F)cc21)Nc1ccc(Cl)c(F)c1` (single isomer, unassigned) [#317, N-(4-chloro-3-fluoro-phenyl)-2-[2,9,11-trifluoro-5-hydroxy-6-oxo-5H-pyrido[2,3-d][1]benzazepin-7-yl]acetamide], the IC50 in test [1] is less than 0.0158 µM; in test [2], 0.0158 to 0.0398 µM.

`COc1cc2c(cn1)-c1cccnc1C(C)C(=O)N2CC(=O)Nc1ccc(C(F)F)cc1` (single isomer, unassigned) [#319, N-[4-(difluoromethyl)phenyl]-2-[5-methoxy-10-methyl-9-oxo-4,8,12-triazatricyclo[9.4.0.0^2,7]pentadeca-1(15),2(7),3,5,11,13-hexaen-8-yl]acetamide]: the IC50 in test [1] is 0.0158 to 0.0398 µM; in test [2], 0.0398 to 0.1 µM.

Consider `COc1cc2c(cn1)-c1cccnc1C(C)C(=O)N2CC(=O)Nc1ccc(Cl)c(F)c1` (single isomer, unassigned) [#320, N-(4-chloro-3-fluoro-phenyl)-2-[5-methoxy-10-methyl-9-oxo-4,8,12-triazatricyclo[9.4.0.0^2,7]pentadeca-1(15),2(7),3,5,11,13-hexaen-8-yl]acetamide], for which the IC50 in test [1] and in test [2] was 0.0158 to 0.0398 µM throughout.

As for `Cc1cc2c(cn1)-c1ccc(F)cc1C(C)C(=O)N2CC(=O)Nc1ccc(C(F)F)cc1` (single isomer, unassigned) [#323, N-[4-(difluoromethyl)phenyl]-2-[9-fluoro-3,7-dimethyl-6-oxo-7H-pyrido[3,4-a][3]benzazepin-5-yl]acetamide], the IC50 in test [1] and in test [2] was less than 0.0158 µM each time.

Consider `Cc1cc2c(cn1)-c1ccc(F)cc1C(C)C(=O)N2CC(=O)Nc1ccc(Cl)c(F)c1` (single isomer, unassigned) [#324, N-(4-chloro-3-fluoro-phenyl)-2-[9-fluoro-3,7-dimethyl-6-oxo-7H-pyrido[3,4-a][3]benzazepin-5-yl]acetamide], for which the IC50 in test [1] and in test [2] was less than 0.0158 µM each time.

The record behind these values is US20260217708A1, “FUSED BENZAZEPINE DERIVATIVES FOR USE IN THE TREATMENT OF CANCER AND EPILEPSY” (UCB BIOPHARMA SRL, priority 2023, published 2026).
